Measured values reported in PubChem BioAssay (NCI).
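Protocol summary: plate cells (96-well), add compound at 5 concentrations, incubate 48 h, interpolate endpoints linearly. GI50: concentration for 50% inhibition of growth. TGI denotes the concentration required for complete inhibition of growth.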

How the values were obtained:
Assay in all cases: DTP human tumour cell line panel, 48 h
SF-295 CNS = test system: SF-295 CNS
SR leukemia = test system: SR leukemia
NCI-H522 lung = test system: NCI-H522 lung
SK-MEL-28 melanoma = test system: SK-MEL-28 melanoma
MALME-3M melanoma = test system: MALME-3M melanoma
786-0 renal = test system: 786-0 renal
RPMI-8226 leukemia = test system: RPMI-8226 leukemia
HCT-116 colon = test system: HCT-116 colon
SN12C renal = test system: SN12C renal
KM12 colon = test system: KM12 colon
OVCAR-5 ovarian = test system: OVCAR-5 ovarian
MCF7 breast = test system: MCF7 breast
SF-539 CNS = test system: SF-539 CNS
TK-10 renal = test system: TK-10 renal
HS 578T breast = test system: HS 578T breast
CAKI-1 renal = test system: CAKI-1 renal
UO-31 renal = test system: UO-31 renal
SNB-19 CNS = test system: SNB-19 CNS
MOLT-4 leukemia = test system: MOLT-4 leukemia
M14 melanoma = test system: M14 melanoma
MDA-MB-435 = test system: MDA-MB-435
HOP-92 NSCLC = test system: HOP-92 NSCLC
DU-145 prostate = test system: DU-145 prostate
OVCAR-8 ovarian = test system: OVCAR-8 ovarian
NCI-H460 lung = test system: NCI-H460 lung
HCT-15 colon = test system: HCT-15 colon
PC-3 prostate = test system: PC-3 prostate
OVCAR-3 ovarian = test system: OVCAR-3 ovarian
NCI-H226 lung = test system: NCI-H226 lung
LOX IMVI melanoma = test system: LOX IMVI melanoma
U251 CNS = test system: U251 CNS
UACC-62 melanoma = test system: UACC-62 melanoma
HL-60(TB) leukemia = test system: HL-60(TB) leukemia
SK-MEL-2 melanoma = test system: SK-MEL-2 melanoma
SF-268 CNS = test system: SF-268 CNS
A549 NSCLC = test system: A549 NSCLC
COLO 205 colon = test system: COLO 205 colon
HCC-2998 colon = test system: HCC-2998 colon
HT29 colon = test system: HT29 colon
CCRF-CEM leukemia = test system: CCRF-CEM leukemia
RXF 393 renal = test system: RXF 393 renal
OVCAR-4 ovarian = test system: OVCAR-4 ovarian
A498 renal = test system: A498 renal
SK-OV-3 ovarian = test system: SK-OV-3 ovarian
EKVX NSCLC = test system: EKVX NSCLC
NCI/ADR-RES ovarian = test system: NCI/ADR-RES ovarian
SK-MEL-5 melanoma = test system: SK-MEL-5 melanoma
SNB-75 CNS = test system: SNB-75 CNS
K-562 leukemia = test system: K-562 leukemia
MDA-MB-231 breast = test system: MDA-MB-231 breast
IGROV1 ovarian = test system: IGROV1 ovarian
BT-549 breast = test system: BT-549 breast
UACC-257 melanoma = test system: UACC-257 melanoma
T-47D breast = test system: T-47D breast
HOP-62 NSCLC = test system: HOP-62 NSCLC
SW-620 colon = test system: SW-620 colon
ACHN renal = test system: ACHN renal
NCI-H23 lung = test system: NCI-H23 lung

In the case of `O=C(N/N=C\c1ccc([N+](=O)[O-])cc1)c1ccc2nc(-c3ccc(Br)cc3)[nH]c2c1`, the GI50 (SF-295 CNS) was 1.3 µM, the TGI (SF-295 CNS) was 13.4 µM and the GI50 (SR leukemia) was 0.891 µM. For the same compound, the TGI (SR leukemia) was 4.55 µM, the GI50 (NCI-H522 lung) was 0.903 µM and the TGI (NCI-H522 lung) was 2.92 µM. It also gave a GI50 (SK-MEL-28 melanoma) of 1.9 µM, a TGI (SK-MEL-28 melanoma) of 11.7 µM and a GI50 (MALME-3M melanoma) of 1.27 µM. The TGI (MALME-3M melanoma) was 4.63 µM, the GI50 (786-0 renal) was 2.92 µM and the TGI (786-0 renal) was 13 µM. For the same compound, the GI50 (RPMI-8226 leukemia) was 0.875 µM, the TGI (RPMI-8226 leukemia) was 2.88 µM and the GI50 (HCT-116 colon) was 1.02 µM. It also gave a TGI (HCT-116 colon) of 3.68 µM, a GI50 (SN12C renal) of 1.22 µM and a TGI (SN12C renal) of 14.1 µM. For the same compound, the GI50 (KM12 colon) was 1.2 µM, the TGI (KM12 colon) was 9.3 µM and the GI50 (OVCAR-5 ovarian) was 2.63 µM. The TGI (OVCAR-5 ovarian) was greater than 58.8 µM, the GI50 (MCF7 breast) was 0.704 µM and the TGI (MCF7 breast) was 2.26 µM. The GI50 (SF-539 CNS) was 1.92 µM, the TGI (SF-539 CNS) was 7.9 µM and the GI50 (TK-10 renal) was 2.96 µM. It also gave a TGI (TK-10 renal) of 26 µM, a GI50 (HS 578T breast) of 1.59 µM and a TGI (HS 578T breast) of 17 µM. For the same compound, the GI50 (CAKI-1 renal) was 1.67 µM, the TGI (CAKI-1 renal) was 22.6 µM and the GI50 (UO-31 renal) was 2.16 µM. The TGI (UO-31 renal) was greater than 51.1 µM, the GI50 (SNB-19 CNS) was 2.29 µM and the TGI (SNB-19 CNS) was 39.6 µM. The GI50 (MOLT-4 leukemia) was 0.912 µM, the TGI (MOLT-4 leukemia) was 4.39 µM and the GI50 (M14 melanoma) was 1.4 µM. It also gave a TGI (M14 melanoma) of 6.69 µM, a GI50 (MDA-MB-435) of 1.42 µM and a TGI (MDA-MB-435) of 5.06 µM. The GI50 (HOP-92 NSCLC) was 2.58 µM, the TGI (HOP-92 NSCLC) was 9.26 µM and the GI50 (DU-145 prostate) was 1.63 µM. The TGI (DU-145 prostate) was greater than 54.2 µM, the GI50 (OVCAR-8 ovarian) was 0.979 µM and the TGI (OVCAR-8 ovarian) was 4.62 µM. The GI50 (NCI-H460 lung) was 0.914 µM, the TGI (NCI-H460 lung) was 2.53 µM and the GI50 (HCT-15 colon) was 1.22 µM. The TGI (HCT-15 colon) was 14.8 µM, the GI50 (PC-3 prostate) was 1.3 µM and the TGI (PC-3 prostate) was 9.4 µM. The GI50 (OVCAR-3 ovarian) was 3.08 µM, the TGI (OVCAR-3 ovarian) was 7.95 µM and the GI50 (NCI-H226 lung) was 2.58 µM. It also gave a TGI (NCI-H226 lung) greater than 54.7 µM, a GI50 (LOX IMVI melanoma) of 0.978 µM and a TGI (LOX IMVI melanoma) of 3.14 µM. For the same compound, the GI50 (U251 CNS) was 1.11 µM, the TGI (U251 CNS) was 3.41 µM and the GI50 (UACC-62 melanoma) was 1.61 µM. For the same compound, the TGI (UACC-62 melanoma) was 14.5 µM, the GI50 (HL-60(TB) leukemia) was 0.801 µM and the TGI (HL-60(TB) leukemia) was 4.96 µM. The GI50 (SK-MEL-2 melanoma) was 3.99 µM, the TGI (SK-MEL-2 melanoma) was 16.6 µM and the GI50 (SF-268 CNS) was 3.87 µM. The TGI (SF-268 CNS) was 96.9 µM, the GI50 (A549 NSCLC) was 1.61 µM and the TGI (A549 NSCLC) was greater than 31.2 µM. It also gave a GI50 (COLO 205 colon) of 0.842 µM, a TGI (COLO 205 colon) of 2.1 µM and a GI50 (HCC-2998 colon) of 1.3 µM. It also gave a TGI (HCC-2998 colon) of 3.96 µM, a GI50 (HT29 colon) of 0.939 µM and a TGI (HT29 colon) of 2.68 µM. The GI50 (CCRF-CEM leukemia) was 1.34 µM, the TGI (CCRF-CEM leukemia) was 8.01 µM and the GI50 (RXF 393 renal) was 1.13 µM. The TGI (RXF 393 renal) was 3.79 µM, the GI50 (OVCAR-4 ovarian) was 1.45 µM and the TGI (OVCAR-4 ovarian) was greater than 43 µM. It also gave a GI50 (A498 renal) of 1.62 µM, a TGI (A498 renal) of 8.34 µM and a GI50 (SK-OV-3 ovarian) of 2.9 µM. For the same compound, the TGI (SK-OV-3 ovarian) was greater than 70.7 µM, the GI50 (EKVX NSCLC) was 1.81 µM and the TGI (EKVX NSCLC) was 97.5 µM. The GI50 (NCI/ADR-RES ovarian) was 18.5 µM, the TGI (NCI/ADR-RES ovarian) was greater than 100 µM and the GI50 (SK-MEL-5 melanoma) was 0.912 µM. For the same compound, the TGI (SK-MEL-5 melanoma) was 2.88 µM, the GI50 (SNB-75 CNS) was 3.79 µM and the TGI (SNB-75 CNS) was 20 µM. For the same compound, the GI50 (K-562 leukemia) was 0.882 µM, the TGI (K-562 leukemia) was 4.18 µM and the GI50 (MDA-MB-231 breast) was 2.93 µM. It also gave a TGI (MDA-MB-231 breast) of 12 µM, a GI50 (IGROV1 ovarian) of 1.61 µM and a TGI (IGROV1 ovarian) of 14.8 µM. For the same compound, the GI50 (BT-549 breast) was 0.911 µM, the TGI (BT-549 breast) was 3.4 µM and the GI50 (UACC-257 melanoma) was 1.26 µM. It also gave a TGI (UACC-257 melanoma) of 6.35 µM, a GI50 (T-47D breast) of 0.955 µM and a TGI (T-47D breast) of 3.28 µM. The GI50 (HOP-62 NSCLC) was 1.9 µM, the TGI (HOP-62 NSCLC) was 10.5 µM and the GI50 (SW-620 colon) was 1.27 µM. For the same compound, the TGI (SW-620 colon) was 4.95 µM, the GI50 (ACHN renal) was 1.92 µM and the TGI (ACHN renal) was greater than 51.7 µM. For the same compound, the GI50 (NCI-H23 lung) was 0.398 µM and the TGI (NCI-H23 lung) was 3.16 µM.
